Assay results from patent publication US9795140B2, “Molecules having pesticidal utility, and intermediates, compositions, and processes, related thereto” (priority 2015, dated 2017).

What was measured:
Format in all cases: in vivo
[1] = tested on: Yellow Fever Mosquito (Aedes aegypti, AEDSAE); test: Bioassay on Yellow Fever Mosquito (YFM) larvae, 96-well plate; settings: about 1 day-old larvae, room temperature, 3 days, scored on mortality
Procedure, shortened: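 Each well was scored for mortality after 3 days at room temperature under a non-evaporative lid. Test molecules came from DMSO masters (4000 ppm stock) diluted with water/acetone 90:10 and dispensed into six replicate plates, which were then infested with roughly 1-day-old larvae in liver-powder water.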

[2] = tested on: Green Peach Aphid (Myzus persicae, MYZUPE); test: Bioassay on Green Peach Aphid (GPA), foliar spray on cabbage seedlings; settings: 72 h, 200 ppm spray on infested cabbage seedlings, three days, Abbott corrected % control, read-out: GPA % Control (or Mortality) rating
Method: Certain molecules disclosed in this document were tested against GPA using procedures described in the following example. In the reporting of the results, the “GPA & YFM Rating Table” was used (See Table Section).
Cabbage seedlings grown in 3-inch pots, with 2-3 small (3-5 cm) true leaves, were used as test substrate. The seedlings were infested with 20-50 GPA (wingless adult and nymph stages) one day prior to chemical application. Four pots with individual seedlings were used for each treatment. Test molecules (2 mg) were dissolved in 2 mL of acetone/methanol (1:1) solvent, forming stock solutions of 1000 ppm test molecule. The stock solutions were diluted 5× with 0.025% Tween 20 in water to obtain the solution at 200 ppm test molecule. A hand-held aspirator-type sprayer was used for spraying a solution to both sides of […] leaves until runoff. Reference plants (solvent check) were sprayed with the diluent only containing 20% by volume of acetone/methanol (1:1) solvent. Treated plants were held in a holding room for three days at approximately 25° C. and ambient relative humidity (RH) prior to grading. Evaluation was conducted by counting the number of live aphids per plant under a microscope. Percent control was measured using Abbott's correction formula (W. S. Abbott, “A Method of Computing the Effectiveness of an Insecticide” J. Econ. Entomol. 18 (1925), pp. 265-267) as follows. Corrected % Control=100*(X−Y)/X where X=No. of live aphids on solvent check plants and Y=No. of live aphids on treated plants. The results are indicated in the table entitled “Table ABC: Biological Results” (See Table Section).

[3] = tested on: Beet Armyworm (Spodoptera exigua, LAPHEG); test: Bioassay on Beet Armyworm (BAW), 128-well diet tray assay; settings: 168 h, 50 μg/cm^2 on artificial diet, second instar larvae, 25° C., five to seven days, average of eight wells, read-out: BAW % Control (or Mortality) rating
Procedure, shortened: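 In a 128-well format, eight wells per compound received a surface dose of 50 μg/cm^2 on artificial diet. After drying, each well got one to five second instar larvae, held at 25° C. with 14:10 photoperiod. Mortality percentages after five to seven days were averaged.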

[4] = tested on: Cabbage Looper (Trichoplusia ni, TRIPNI); test: Bioassay on Cabbage Looper (CL), 128-well diet tray assay; settings: 168 h, 50 μg/cm^2 on artificial diet, second instar larvae, 25° C., five to seven days, average of eight wells, read-out: CL % Control (or Mortality) rating
Procedure, shortened: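 Percent larval mortality, averaged across eight replicate wells, was scored after 5–7 days at 25 °C with a 14:10 photoperiod. Each well held 1 mL diet surface-treated at 50 μg/cm^2 with test molecule from a 90:10 acetone-water solution, then dried. Wells were infested with one to five second-instar cabbage loopers.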

Structure (SMILES): C=CCONC(=O)c1cc(NC(=O)[C@H]2[C@H](c3ccc(Cl)c(Cl)c3)C2(Cl)Cl)ccc1Cl (relative stereo) [F14, trans-N-(Allyloxy)-2-chloro-5-(2,2-dichloro-3-(3,4-dichlorophenyl)cyclopropane-1-carboxamido)benzamide]
- YFM % Control (or Mortality) rating [1]: A (80-100)
- mortality at 200 ppm [2]: 0 to 80%
- mortality at 50 µg/cm2 [3]: 50 to 100%
- mortality at 50 µg/cm2 [4]: 50 to 100%

Structure (SMILES): CCNC(=O)c1cc(NC(=O)[C@H]2[C@H](c3cc(Cl)cc(Cl)c3)C2(Cl)Cl)ccc1Cl (relative stereo) [F46, trans-2-Chloro-5-(2,2-dichloro-3-(3,5-dichlorophenyl)cyclopropane-1-carboxamido)-N-ethylbenzamide]
- YFM % Control (or Mortality) rating [1]: A (80-100)
- mortality at 200 ppm [2]: 80 to 100%
- mortality at 50 µg/cm2 [3]: 50 to 100%
- mortality at 50 µg/cm2 [4]: 50 to 100%

Structure (SMILES): CCCCNC(=O)c1cc(NC(=O)[C@H]2[C@H](c3cc(Cl)cc(Cl)c3)C2(Cl)Cl)ccc1Cl (relative stereo) [F45, trans-N-Butyl-2-chloro-5-(2,2-dichloro-3-(3,5-dichlorophenyl)cyclopropane-1-carboxamido)benzamide]
- YFM % Control (or Mortality) rating [1]: A (80-100)
- mortality at 200 ppm [2]: 80 to 100%
- mortality at 50 µg/cm2 [3]: 50 to 100%
- mortality at 50 µg/cm2 [4]: 50 to 100%

Structure (SMILES): CC(C)CNC(=O)c1cc(NC(=O)[C@H]2[C@H](c3cc(Cl)cc(Cl)c3)C2(Cl)Cl)ccc1Cl (relative stereo) [F30, trans-2-chloro-5-(2,2-dichloro-3-(3,5-dichlorophenyl)cyclopropane-1-carboxamido)-N-isobutylbenzamide]
- YFM % Control (or Mortality) rating [1]: A (80-100)
- mortality at 200 ppm [2]: 80 to 100%
- mortality at 50 µg/cm2 [3]: 50 to 100%
- mortality at 50 µg/cm2 [4]: 50 to 100%

Structure (SMILES): CC(=O)NCCNC(=O)c1cc(NC(=O)[C@H]2[C@H](c3cc(Cl)cc(Cl)c3)C2(Cl)Cl)ccc1Cl (relative stereo) [F55, trans-N-(2-Acetamidoethyl)-2-chloro-5-(2,2-dichloro-3-(3,5-dichlorophenyl)cyclopropane-1-carboxamido)benzamide]
- YFM % Control (or Mortality) rating [1]: B (More than 0-Less than 80)
- mortality at 200 ppm [2]: 80 to 100%
- mortality at 50 µg/cm2 [3]: 50 to 100%
- mortality at 50 µg/cm2 [4]: 50 to 100%

Structure (SMILES): O=C(NCc1cccnc1)c1cc(NC(=O)[C@H]2[C@H](c3cc(Cl)cc(Cl)c3)C2(Cl)Cl)ccc1Cl (relative stereo) [F6, trans-2-Chloro-5-(2,2-dichloro-3-(3,5-dichlorophenyl)cyclopropane-1-carboxamido)-N-(pyridin-3-ylmethyl)benzamide]
- YFM % Control (or Mortality) rating [1]: A (80-100)
- mortality at 200 ppm [2]: 0 to 80%
- mortality at 50 µg/cm2 [3]: 50 to 100%
- mortality at 50 µg/cm2 [4]: 50 to 100%

Structure (SMILES): C#CCNC(=O)c1cc(NC(=O)[C@H]2[C@H](c3cc(Cl)cc(Cl)c3)C2(Cl)Cl)ccc1Cl (relative stereo) [F47, trans-2-Chloro-5-(2,2-dichloro-3-(3,5-dichlorophenyl)cyclopropane-1-carboxamido)-N-(prop-2-yn-1-yl)benzamide]
- YFM % Control (or Mortality) rating [1]: A (80-100)
- mortality at 200 ppm [2]: 80 to 100%
- mortality at 50 µg/cm2 [3]: 50 to 100%
- mortality at 50 µg/cm2 [4]: 50 to 100%

Structure (SMILES): CCCCCNC(=O)c1cc(NC(=O)[C@H]2[C@H](c3cc(Cl)cc(Cl)c3)C2(Cl)Cl)ccc1Cl (relative stereo) [F33, trans-2-Chloro-5-(2,2-dichloro-3-(3,5-dichlorophenyl)cyclopropane-1-carboxamido)-N-pentylbenzamide]
- YFM % Control (or Mortality) rating [1]: A (80-100)
- mortality at 200 ppm [2]: 0 to 80%
- mortality at 50 µg/cm2 [3]: 50 to 100%
- mortality at 50 µg/cm2 [4]: 50 to 100%

Structure (SMILES): O=C(NCc1ccccc1)c1cc(NC(=O)[C@H]2[C@H](c3cc(Cl)cc(Cl)c3)C2(Cl)Cl)ccc1Cl (relative stereo) [F27, trans-N-benzyl-2-chloro-5-(2,2-dichloro-3-(3,5-dichlorophenyl)cyclopropane-1-carboxamido)benzamide]
- YFM % Control (or Mortality) rating [1]: A (80-100)
- mortality at 200 ppm [2]: 0 to 80%
- mortality at 50 µg/cm2 [3]: 50 to 100%
- mortality at 50 µg/cm2 [4]: 50 to 100%

Structure (SMILES): N#CCCCNC(=O)c1cc(NC(=O)[C@H]2[C@H](c3cc(Cl)cc(Cl)c3)C2(Cl)Cl)ccc1Cl (relative stereo) [F38, trans-2-Chloro-N-(3-cyanopropyl)-5-(2,2-dichloro-3-(3,5-dichlorophenyl)cyclopropane-1-carboxamido)benzamide]
- YFM % Control (or Mortality) rating [1]: A (80-100)
- mortality at 200 ppm [2]: 80 to 100%
- mortality at 50 µg/cm2 [3]: 50 to 100%
- mortality at 50 µg/cm2 [4]: 50 to 100%

Structure (SMILES): O=C(NCC(F)F)c1cc(NC(=O)[C@H]2[C@H](c3cc(Cl)cc(Cl)c3)C2(Cl)Cl)ccc1Cl (relative stereo) [F48, trans-2-Chloro-5-(2,2-dichloro-3-(3,5-dichlorophenyl)cyclopropane-1-carboxamido)-N-(2,2-difluoroethyl)benzamide]
- YFM % Control (or Mortality) rating [1]: B (More than 0-Less than 80)
- mortality at 200 ppm [2]: 80 to 100%
- mortality at 50 µg/cm2 [3]: 50 to 100%
- mortality at 50 µg/cm2 [4]: 50 to 100%

Structure (SMILES): O=C(NCc1ccc(F)c(F)c1)c1cc(NC(=O)[C@H]2[C@H](c3cc(Cl)cc(Cl)c3)C2(Cl)Cl)ccc1Cl (relative stereo) [F32, trans-2-Chloro-5-(2,2-dichloro-3-(3,5-dichlorophenyl)cyclopropane-1-carboxamido)-N-(3,4-difluorobenzyl)benzamide]
- YFM % Control (or Mortality) rating [1]: A (80-100)
- mortality at 200 ppm [2]: 0 to 80%
- mortality at 50 µg/cm2 [3]: 50 to 100%
- mortality at 50 µg/cm2 [4]: 50 to 100%

Structure (SMILES): O=C(NCCC(F)(F)F)c1cc(NC(=O)[C@H]2[C@H](c3cc(Cl)cc(Cl)c3)C2(Cl)Cl)ccc1Cl (relative stereo) [F40, trans-2-Chloro-5-(2,2-dichloro-3-(3,5-dichlorophenyl)cyclopropane-1-carboxamido)-N-(3,3,3-trifluoropropyl)benzamide]
- YFM % Control (or Mortality) rating [1]: A (80-100)
- mortality at 200 ppm [2]: 80 to 100%
- mortality at 50 µg/cm2 [3]: 50 to 100%
- mortality at 50 µg/cm2 [4]: 50 to 100%

Structure (SMILES): O=C(NCCc1ccc(F)cc1)c1cc(NC(=O)C2C(c3cc(Cl)c(Cl)c(Cl)c3)C2(Cl)Cl)ccc1Cl (stereo not drawn) [F20, trans-N-2-Chloro-5-(2,2-dichloro-3-(3,4,5-trichlorophenyl)cyclopropane-1-carboxamido)-N-(4-fluorophenethyl)benzamide]
- YFM % Control (or Mortality) rating [1]: A (80-100)
- mortality at 200 ppm [2]: 0 to 80%
- mortality at 50 µg/cm2 [3]: 50 to 100%
- mortality at 50 µg/cm2 [4]: 50 to 100%

Structure (SMILES): O=C(NCC(F)(F)C(F)(F)F)c1cc(NC(=O)[C@H]2[C@H](c3cc(Cl)cc(Cl)c3)C2(Cl)Cl)ccc1Cl (relative stereo) [F49, trans-2-Chloro-5-(2,2-dichloro-3-(3,5-dichlorophenyl)cyclopropane-1-carboxamido)-N-(2,2,3,3,3-pentafluoropropyl)benzamide]
- YFM % Control (or Mortality) rating [1]: A (80-100)
- mortality at 200 ppm [2]: 80 to 100%
- mortality at 50 µg/cm2 [3]: 50 to 100%
- mortality at 50 µg/cm2 [4]: 50 to 100%

Structure (SMILES): O=C(NOCC1CC1(F)F)c1cc(NC(=O)C2C(c3cc(Cl)cc(Cl)c3)C2(Cl)Cl)ccc1Cl (stereo not drawn) [F21, trans-N-2-Chloro-5-(2,2-dichloro-3-(3,5-dichlorophenyl)cyclopropane-1-carboxamido)-N-((2,2-difluorocyclopropyl)methoxy)benzamide]
- YFM % Control (or Mortality) rating [1]: B (More than 0-Less than 80)
- mortality at 200 ppm [2]: 0 to 80%
- mortality at 50 µg/cm2 [3]: 50 to 100%
- mortality at 50 µg/cm2 [4]: 50 to 100%

Structure (SMILES): CCCNC(=O)c1cc(NC(=O)[C@H]2[C@H](c3cc(Cl)cc(Cl)c3)C2(Cl)Cl)ccc1Cl (relative stereo) [F56, trans-2-Chloro-5-(2,2-dichloro-3-(3,5-dichlorophenyl)cyclopropane-1-carboxamido)-N-propylbenzamide]
- YFM % Control (or Mortality) rating [1]: A (80-100)
- mortality at 200 ppm [2]: 80 to 100%
- mortality at 50 µg/cm2 [3]: 50 to 100%
- mortality at 50 µg/cm2 [4]: 50 to 100%

Structure (SMILES): O=C(NCCCF)c1cc(NC(=O)[C@H]2[C@H](c3cc(Cl)cc(Cl)c3)C2(Cl)Cl)ccc1Cl (relative stereo) [F44, trans-2-Chloro-5-(2,2-dichloro-3-(3,5-dichlorophenyl)cyclopropane-1-carboxamido)-N-(3-fluoropropyl)benzamide]
- YFM % Control (or Mortality) rating [1]: A (80-100)
- mortality at 200 ppm [2]: 80 to 100%
- mortality at 50 µg/cm2 [3]: 50 to 100%
- mortality at 50 µg/cm2 [4]: 50 to 100%
